Experimental data reported in US11834401B2, “Treating and preventing diseases by modulating cell mechanics” (THE JOHNS HOPKINS UNIVERSITY, priority 2013, dated 2023).

Legend:
myosin II = biological target: T1, myosin II (Dictyostelium discoideum, UniProt P08799); assay: Myosin II cortical localization by SIM, TIRF and confocal imaging; type: cell-based
T1 construct: expressed in transfected cells; host or cells: Dictyostelium discoideum myoII null cells rescued with GFP-myosin II
Procedure: (§1) Micropipette aspiration was used for cortical tension and creep response measurements. Confocal imaging was performed on a Zeiss 510 Meta with a 63× (numerical aperture [NA] 1.4) objective (Carl Zeiss, Jena, Germany). Epifluorescence and TIRF imaging was performed in a 22° C. temperature controlled room with an Olympus IX81 microscope using a 40× (NA 1.3) or 60× (NA 1.49) objective and a 1.4× optovar (Olympus, Center Valley, Pa.), as previously described. Image analysis was performed with ImageJ (rsb.info.nih.gov/ij).
Imaging conditions during primary screen are described above. All other image analysis was performed as previously described (Kee Y S, et al., 2012). Cells were transferred from Petri dishes (with 0.1% DMSO incubation in growth media of 4 hrs) to imaging chambers and allowed to adhere for 20 min in growth media with 0.1% DMSO. After the cells adhered, the growth media was replaced with 2-(N-morpholino)ethanesulfonic acid (MES) starvation buffer (50 mM MES, pH 6.8, 2 mM MgCl2, 0.2 mM CaCl2) with 0.1% DMS. Confocal imaging was performed on aZeiss 510 Meta with a 63× (numerical aperture [NA] 1.4) objective (Carl Zeiss, Jena, Germany). Epifluorescence and TIR imaging was performed in a 22° C. temperature controlled room with an Olympus IX81 microscope using a 40× (NA 1.3) or 60× (NA […]) objective and a 1.4× optovar (Olympus, Center Valley, Pa.), as previously described. Image analysis was performed with ImageJ (rsb.info.nih.gov/ij). Many data sets were independently analyzed by multiple investigators.

Dictyostelium cells = assay: Micropipette aspiration cortical tension, Dictyostelium; type: cell-based, Dictyostelium discoideum
Procedure: as §1
The instrumental and experimental setups have been previously described (Effler J C, et al., 2006; Kee Y-S, et al., 2013). Micropipette aspiration assays were all carried out in growth media with 0.1% DMSO. For cortical tension measurements of Dictyostelium cells, pressure was applied to the cell cortex with a micropipette (2-3 m radius, Rp) to the equilibrium pressure (ΔP) where the length of the cell inside the pipette (Lp) was equal to Rp. The effective cortical tension (Teff) was calculated by applying the Young-Laplace equation: ΔP=2Teff(1/Rp-1/Rc), where Rc is the radius of the cell and ΔP is the equilibrium pressure when Lp=Rp (Derganc J, et al., 2000; Octtaviani E, et al., 2006). For creep tests on mammalian strains, a constant aspiration stress was applied over 60 s. The micropipette radius was 3.5-4.5 m. For quantification, the Lp/Rp ratio values was measured every two seconds and plotted as a function of time. A10.7 and HEK293 cells could only be aspirated at a low pressure range (0.15 nN/μm^2), while HPDE, ASPC-1, and HL-60 cells could be aspirated at higher pressure ranges (0.25 nN/μm^2) because they were stiffer.

[1] = biological target: T2, Dictyostelium myosin II ADCT (Dictyostelium discoideum, UniProt P08799); assay: In vitro myosin assembly assay, with or without 14-3-3; type: biochemical; settings: with or without purified 14-3-3
T2 construct: fused to the assembly domains of Dictyostelium myosin II (residues 1533-1823); 6xHis (N); mCherry (N); made in house; host or cells: E. coli BL-21 Star (DE3)
T2 sequence (P08799 1533-1823): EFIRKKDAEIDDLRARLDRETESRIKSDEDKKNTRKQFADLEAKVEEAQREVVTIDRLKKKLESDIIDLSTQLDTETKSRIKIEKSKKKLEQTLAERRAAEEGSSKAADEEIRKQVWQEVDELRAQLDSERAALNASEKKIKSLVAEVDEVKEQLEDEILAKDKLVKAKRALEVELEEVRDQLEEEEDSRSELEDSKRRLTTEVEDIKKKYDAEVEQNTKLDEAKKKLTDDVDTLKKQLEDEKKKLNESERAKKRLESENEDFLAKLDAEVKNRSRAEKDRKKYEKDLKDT
Description: The sedimentation assays were used to assess myosin II assembly in cells. The assembly assay used purified proteins (N-terminal 6×His tag (SEQ ID NO: 1), fused to the mCherry fluorophore, fused to the assembly domains of Dictyostelium myosin II (residues 1533-1823), human myosin IIA (residues 1722-1960), and human myosin IIB (residues 1729-1976), and 6×His-tagged (SEQ ID NO: 1) fused Dictyostelium 14-3-3). Purified chicken nonmuscle IIB heavy meromyosin (HMM) was used for in vitro motility.
Bacterial expression plasmids coding for an N-terminal 6×His tag (SEQ ID NO: 1), fused to the mCherry fluorophore, fused to the assembly domains of Dictyostelium myosin II (residues 1533-1823), human myosin IIA (residues 1722-1960), or human myosin IIB (residues 1729-1976) were generated using standard cloning techniques.
Dictyostelium 14-3-3 was also expressed in bacteria as a 6×His-tagged (SEQ ID NO: 1) fusion protein (Zhou Q et al., 2010). Proteins were expressed in BL-21 Star™ (DE3) (Invitrogen) E. coli in LB shaking culture overnight at room temperature. […] Protein purity was verified by SDS-PAGE followed by Coomassie Blue staining, and concentration was quantified by UV absorbance using the calculated extinction coefficient for each protein's amino acid sequence. […]

T1 sequence (P08799 whole entry): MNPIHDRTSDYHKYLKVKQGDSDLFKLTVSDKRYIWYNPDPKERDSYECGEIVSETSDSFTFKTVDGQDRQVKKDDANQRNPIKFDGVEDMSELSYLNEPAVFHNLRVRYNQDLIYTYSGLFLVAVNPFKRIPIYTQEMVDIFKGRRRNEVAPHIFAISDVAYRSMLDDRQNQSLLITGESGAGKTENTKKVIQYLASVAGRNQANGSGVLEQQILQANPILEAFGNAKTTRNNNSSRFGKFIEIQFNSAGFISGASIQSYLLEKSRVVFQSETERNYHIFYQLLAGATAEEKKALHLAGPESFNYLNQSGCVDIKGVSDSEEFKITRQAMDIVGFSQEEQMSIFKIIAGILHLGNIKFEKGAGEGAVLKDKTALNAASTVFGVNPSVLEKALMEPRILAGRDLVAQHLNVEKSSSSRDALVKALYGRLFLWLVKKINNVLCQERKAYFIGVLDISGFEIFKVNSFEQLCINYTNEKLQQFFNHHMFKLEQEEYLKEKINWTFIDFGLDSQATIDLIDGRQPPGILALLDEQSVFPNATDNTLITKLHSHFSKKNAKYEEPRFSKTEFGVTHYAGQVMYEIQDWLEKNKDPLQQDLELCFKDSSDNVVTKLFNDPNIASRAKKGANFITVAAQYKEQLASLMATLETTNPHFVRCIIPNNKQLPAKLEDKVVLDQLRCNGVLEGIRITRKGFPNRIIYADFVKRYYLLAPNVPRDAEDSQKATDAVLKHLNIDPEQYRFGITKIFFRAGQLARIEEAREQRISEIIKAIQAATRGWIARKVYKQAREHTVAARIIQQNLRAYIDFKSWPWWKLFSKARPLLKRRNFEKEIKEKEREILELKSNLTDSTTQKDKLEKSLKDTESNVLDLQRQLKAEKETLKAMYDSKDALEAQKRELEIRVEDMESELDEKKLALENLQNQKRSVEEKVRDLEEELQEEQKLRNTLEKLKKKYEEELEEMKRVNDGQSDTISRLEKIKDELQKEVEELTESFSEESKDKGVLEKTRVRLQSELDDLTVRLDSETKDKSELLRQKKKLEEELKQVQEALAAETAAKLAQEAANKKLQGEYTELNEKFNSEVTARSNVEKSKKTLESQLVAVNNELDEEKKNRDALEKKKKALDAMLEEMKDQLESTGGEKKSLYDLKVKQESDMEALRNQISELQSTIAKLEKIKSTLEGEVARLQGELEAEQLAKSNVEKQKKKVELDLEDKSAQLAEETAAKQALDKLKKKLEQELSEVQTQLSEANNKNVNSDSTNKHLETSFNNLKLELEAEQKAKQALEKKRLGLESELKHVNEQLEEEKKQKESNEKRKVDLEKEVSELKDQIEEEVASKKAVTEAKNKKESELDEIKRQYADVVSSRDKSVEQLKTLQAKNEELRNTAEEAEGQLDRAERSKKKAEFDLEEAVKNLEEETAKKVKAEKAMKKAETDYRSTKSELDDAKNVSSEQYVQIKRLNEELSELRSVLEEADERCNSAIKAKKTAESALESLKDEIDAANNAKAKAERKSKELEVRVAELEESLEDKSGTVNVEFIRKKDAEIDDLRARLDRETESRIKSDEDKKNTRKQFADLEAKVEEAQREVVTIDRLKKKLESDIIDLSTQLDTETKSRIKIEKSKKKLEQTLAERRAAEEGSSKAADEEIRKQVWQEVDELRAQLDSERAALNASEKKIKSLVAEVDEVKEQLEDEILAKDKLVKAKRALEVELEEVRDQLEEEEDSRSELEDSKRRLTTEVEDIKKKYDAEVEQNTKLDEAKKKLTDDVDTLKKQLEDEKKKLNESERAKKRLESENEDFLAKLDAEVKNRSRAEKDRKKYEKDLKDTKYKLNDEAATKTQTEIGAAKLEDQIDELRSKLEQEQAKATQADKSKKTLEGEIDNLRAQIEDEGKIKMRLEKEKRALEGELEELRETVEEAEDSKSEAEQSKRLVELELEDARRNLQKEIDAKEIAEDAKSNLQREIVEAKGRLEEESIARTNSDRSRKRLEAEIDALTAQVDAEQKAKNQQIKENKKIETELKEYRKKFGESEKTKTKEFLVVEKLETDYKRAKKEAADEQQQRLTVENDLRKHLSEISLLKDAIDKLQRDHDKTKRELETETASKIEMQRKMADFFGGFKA

Structure (SMILES)	changes in myosin II cortical distribution (TIRF) (myosin II; 500 nM time course)	effect on cortical tension (Dictyostelium cells; WT cells)	in vitro assembly vs DMSO control [1]	time to significant localization of GFP-myosin II (myosin II; 500 nM) [min]	time for myosin II localization to revert to pre-treatment levels after removal (myosin II; 500 nM, washout) [min]	increase in myosin II localization at the cortex by TIRF (myosin II; 500 nM, within 10 min) [fold]	subset of cells with BTFs accumulated into ribbon-like rings (myosin II; TIRF) [%]	increase in myosin II at the cortex (myosin II; TIRF time course) [fold]	time for myosin II bipolar thick filaments to accumulate at the cortex (myosin II; TIRF time course) [min]	time to steady state of myosin II cortical accumulation (myosin II; TIRF time course) [min]	myosin II accumulation in cortexillin I deleted cells (myosin II; cortI::GFPmyo cells)	cortical enrichment of myosin II (cortex to cytoplasm) (myosin II; each degradation product tested)	change in cortical tension, myosin II null cells (Dictyostelium cells; myoI null cells as printed)	change in cortical tension, S456L myosin cells (Dictyostelium cells; myoII::GFP-S456L cells)
Nc1ccc(Cl)c(Cl)c1 [3,4-DCA, 3,4-dichloroaniline]	Neither 3,4-DCA nor the urea result in changes in myosin II cortical distribution	had no effect	no significant change in in vitro assembly											
CC(=O)c1ccc(O)cc1 [4-HAP, 4-hydroxyacetophenone]			no significant change in in vitro assembly	≤ 10	≤ 15	2	15	2.5	≤ 5	15	abolished	4-HAP alone drives myosin II relocalization	did not experience a similar shift in mechanics	did not have a change in cortical tension
